According to the NIST ThermoML archive (doi:10.1016/j.fluid.2011.12.029):

Details: Liquid, Vibrating tube method

CCC[n+]1ccccc1Oc1ccc(Cl)c[n+]1CCOS(=O)(=O)[O-].F[B-](F)(F)F
Details | mass density [kg/m3]
283.15 K, 100 kPa | 1264.92
283.15 K, 5000 kPa | 1266.85
283.15 K, 10000 kPa | 1269.01
283.15 K, 15000 kPa | 1270.98
283.15 K, 20000 kPa | 1273.05
283.15 K, 25000 kPa | 1274.97
283.15 K, 30000 kPa | 1276.87
283.15 K, 35000 kPa | 1278.73
283.15 K, 40000 kPa | 1280.58
283.15 K, 45000 kPa | 1282.38
283.15 K, 50000 kPa | 1284.12
283.15 K, 55000 kPa | 1285.76
283.15 K, 60000 kPa | 1287.38
283.15 K, 65000 kPa | 1289.03
288.15 K, 100 kPa | 1260.92
288.15 K, 5000 kPa | 1262.99
288.15 K, 10000 kPa | 1265.09
288.15 K, 15000 kPa | 1267.22
288.15 K, 20000 kPa | 1269.26
288.15 K, 25000 kPa | 1271.11
288.15 K, 30000 kPa | 1273.09
288.15 K, 35000 kPa | 1275.02
288.15 K, 40000 kPa | 1276.87
288.15 K, 45000 kPa | 1278.72
288.15 K, 50000 kPa | 1280.38
288.15 K, 55000 kPa | 1282.18
288.15 K, 60000 kPa | 1283.78
288.15 K, 65000 kPa | 1285.51
293.15 K, 100 kPa | 1257.14
293.15 K, 5000 kPa | 1259.28
293.15 K, 10000 kPa | 1261.4
293.15 K, 15000 kPa | 1263.43
293.15 K, 20000 kPa | 1265.5
293.15 K, 25000 kPa | 1267.47
293.15 K, 30000 kPa | 1269.5
293.15 K, 35000 kPa | 1271.32
293.15 K, 40000 kPa | 1273.23
293.15 K, 45000 kPa | 1275.01
293.15 K, 50000 kPa | 1276.8
293.15 K, 55000 kPa | 1278.62
293.15 K, 60000 kPa | 1280.22
293.15 K, 65000 kPa | 1281.96
298.15 K, 100 kPa | 1253.37
298.15 K, 5000 kPa | 1255.54
298.15 K, 10000 kPa | 1257.73
298.15 K, 15000 kPa | 1259.9
298.15 K, 20000 kPa | 1262.01
298.15 K, 25000 kPa | 1263.98
298.15 K, 30000 kPa | 1265.98
298.15 K, 35000 kPa | 1267.9
298.15 K, 40000 kPa | 1269.81
298.15 K, 45000 kPa | 1271.6
298.15 K, 50000 kPa | 1273.47
298.15 K, 55000 kPa | 1275.21
298.15 K, 60000 kPa | 1276.93
298.15 K, 65000 kPa | 1278.65
303.15 K, 100 kPa | 1249.77
303.15 K, 5000 kPa | 1252.02
303.15 K, 10000 kPa | 1254.17
303.15 K, 15000 kPa | 1256.38
303.15 K, 20000 kPa | 1258.37
303.15 K, 25000 kPa | 1260.46
303.15 K, 30000 kPa | 1262.48
303.15 K, 35000 kPa | 1264.47
303.15 K, 40000 kPa | 1266.35
303.15 K, 45000 kPa | 1268.13
303.15 K, 50000 kPa | 1269.94
303.15 K, 55000 kPa | 1271.81
303.15 K, 60000 kPa | 1273.55
303.15 K, 65000 kPa | 1275.21
308.15 K, 100 kPa | 1246.14
308.15 K, 5000 kPa | 1248.19
308.15 K, 10000 kPa | 1250.57
308.15 K, 15000 kPa | 1252.6
308.15 K, 20000 kPa | 1254.8
308.15 K, 25000 kPa | 1256.85
308.15 K, 30000 kPa | 1258.87
308.15 K, 35000 kPa | 1260.93
308.15 K, 40000 kPa | 1262.88
308.15 K, 45000 kPa | 1264.72
308.15 K, 50000 kPa | 1266.61
308.15 K, 55000 kPa | 1268.36
308.15 K, 60000 kPa | 1270.11
308.15 K, 65000 kPa | 1271.84
313.15 K, 100 kPa | 1242.44
313.15 K, 5000 kPa | 1244.75
313.15 K, 10000 kPa | 1247.02
313.15 K, 15000 kPa | 1249.22
313.15 K, 20000 kPa | 1251.35
313.15 K, 25000 kPa | 1253.46
313.15 K, 30000 kPa | 1255.5
313.15 K, 35000 kPa | 1257.51
313.15 K, 40000 kPa | 1259.52
313.15 K, 45000 kPa | 1261.48
313.15 K, 50000 kPa | 1263.42
313.15 K, 55000 kPa | 1265.2
313.15 K, 60000 kPa | 1267
313.15 K, 65000 kPa | 1268.66
318.15 K, 100 kPa | 1238.82
318.15 K, 5000 kPa | 1241.01
318.15 K, 10000 kPa | 1243.39
318.15 K, 15000 kPa | 1245.52
318.15 K, 20000 kPa | 1247.69
318.15 K, 25000 kPa | 1249.81
318.15 K, 30000 kPa | 1251.93
318.15 K, 35000 kPa | 1253.97
318.15 K, 40000 kPa | 1255.96
318.15 K, 45000 kPa | 1257.93
318.15 K, 50000 kPa | 1259.75
318.15 K, 55000 kPa | 1261.48
318.15 K, 60000 kPa | 1263.53
318.15 K, 65000 kPa | 1265.2
323.15 K, 100 kPa | 1235.3
323.15 K, 5000 kPa | 1237.63
323.15 K, 10000 kPa | 1239.98
323.15 K, 15000 kPa | 1242.24
323.15 K, 20000 kPa | 1244.44
323.15 K, 25000 kPa | 1246.62
323.15 K, 30000 kPa | 1248.63
323.15 K, 35000 kPa | 1250.7
323.15 K, 40000 kPa | 1252.76
323.15 K, 45000 kPa | 1254.69
323.15 K, 50000 kPa | 1256.63
323.15 K, 55000 kPa | 1258.52
323.15 K, 60000 kPa | 1260.31
323.15 K, 65000 kPa | 1262.15
328.15 K, 100 kPa | 1231.68
328.15 K, 5000 kPa | 1233.97
328.15 K, 10000 kPa | 1236.25
328.15 K, 15000 kPa | 1238.61
328.15 K, 20000 kPa | 1240.87
328.15 K, 25000 kPa | 1243.01
328.15 K, 30000 kPa | 1245.19
328.15 K, 35000 kPa | 1247.33
328.15 K, 40000 kPa | 1249.3
328.15 K, 45000 kPa | 1251.23
328.15 K, 50000 kPa | 1253.26
328.15 K, 55000 kPa | 1255.02
328.15 K, 60000 kPa | 1256.98
328.15 K, 65000 kPa | 1258.79
333.15 K, 100 kPa | 1228.25
333.15 K, 5000 kPa | 1230.56
333.15 K, 10000 kPa | 1232.96
333.15 K, 15000 kPa | 1235.23
333.15 K, 20000 kPa | 1237.65
333.15 K, 25000 kPa | 1239.91
333.15 K, 30000 kPa | 1241.9
333.15 K, 35000 kPa | 1244.07
333.15 K, 40000 kPa | 1246.16
333.15 K, 45000 kPa | 1248.15
333.15 K, 50000 kPa | 1250.14
333.15 K, 55000 kPa | 1252
333.15 K, 60000 kPa | 1253.93
333.15 K, 65000 kPa | 1255.7
